Measurements from ChEMBL document CHEMBL1201862, “PubChem BioAssay data set” (2004).
“And” between values parts separate entries of the source, which are not always exact repeats. Identical values can stand only once.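 1) Cells in 96-well plates. 2) Compound, 48 h, 5 concentrations. 3) Linear interpolation between surrounding doses. 4) Unreached endpoint = highest concentration. GI50: concentration for 50% inhibition of growth.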 The source made the active and inactive calls. Rule as the data show it: active = GI50 up to about 1.1 µM and inactive = higher. Starred links: 1 amine or outer side, 2 acyl side, 3 side chain; linkers in the order of their positions; H or OH if unused. Non-standard residues stand in square brackets, D forms with d. Residues, ends and D or L forms follow the SMILES beside them. X35 = C=CCC(O[*:1])C(=O)[*:2]; NMeV = CN[CH](C(=O)O)C(C)C; NMeA = CN[CH](C)C(=O)O; βAla = NCCC(=O)O

How the values were obtained:
Assay in all cases: NCI-60 cell line screen, 48 h
ACHN = test system: ACHN
BT-549 = test system: BT-549
DU-145 = test system: DU-145
HCT-15 = test system: HCT-15
HL-60 = test system: HL-60
Hs-578T = test system: Hs-578T
MDA-MB-231 = test system: MDA-MB-231
NCI-H460 = test system: NCI-H460
NCI-H522 = test system: NCI-H522
NCI/ADR-RES = test system: NCI/ADR-RES
OVCAR-3 = test system: OVCAR-3
OVCAR-8 = test system: OVCAR-8
PC-3 = test system: PC-3
RPMI-8226 = test system: RPMI-8226
SR = test system: SR
T47D = test system: T47D
A498 = test system: A498
K562 = test system: K562
Malme-3M = test system: Malme-3M

Row | SMILES | GI50 (ACHN) | GI50 (BT-549) | GI50 (DU-145) | GI50 (HCT-15) [µM] | GI50 (HL-60) | GI50 (Hs-578T) | GI50 (MDA-MB-231) | GI50 (NCI-H460) | GI50 (NCI-H522) | GI50 (NCI/ADR-RES) | GI50 (OVCAR-3) | GI50 (OVCAR-8) | GI50 (PC-3) | GI50 (RPMI-8226) | GI50 (SR) | GI50 (T47D) | GI50 (A498) | GI50 (K562) | GI50 (Malme-3M)
1 | C=CCC1OC(=O)CCNC(=O)C(C)N(C)C(=O)C(C(C)C)N(C)C(=O)C(C(C)CC)NC(=O)C2CCCN2C1=O (centres undefined) (cyclo([X35]PI[NMeV][NMeA][βAla]); configuration not given here) | 18.4 µM (inactive) | 32 µM (inactive) | 44.9 µM (inactive) | 23.2 | 2.56 µM (inactive) | 91.6 µM (inactive) | 1.62 µM (inactive) | 3.66 µM (inactive) | 16 µM (inactive) | > 100 µM (inactive) | 2.16 µM (inactive) | 7.89 µM (inactive) | 5.85 µM (inactive) | 2.62 µM (inactive) | 2.58 µM (inactive) | 20.8 µM (inactive) | – | – | –
2 | C1=N\CCNCCNCC/N=C\c2ccc(cc2)OCc2cccc(n2)COc2ccc/1cc2 | > 100 µM (inactive) | > 100 µM (inactive) | > 100 µM (inactive) | > 100 | 67.9 µM (inactive) | 99.3 µM (inactive) | > 100 µM (inactive) | 73.6 µM (inactive) | – | 95.1 µM (inactive) | > 100 µM (inactive) | > 100 µM (inactive) | 79.4 µM (inactive) | 53.6 µM (inactive) | 50.5 µM (inactive) | 53.3 µM (inactive) | > 100 µM (inactive) | 34.1 µM (inactive) | > 100 µM (inactive)
3 | CCCCCCCC(=O)NC(C)(C)C(=O)NCC(=O)NC(CC(C)C)C(=O)NC(C)(C)C(=O)NCC(=O)NCC(=O)NC(CC(C)C)C(=O)NC(C)(C)C(=O)NCC(=O)NC(C(=O)NC(CO)CC(C)C)C(C)CC (centres undefined) | 5 µM (inactive) | 3.59 µM (inactive) | 4.55 µM (inactive) | 4.86 | – | 4.42 µM (inactive) | 4 µM (inactive) | 4.48 µM (inactive) | 3.87 µM (inactive) | 4.83 µM (inactive) | 3.11 µM (inactive) | 4.21 µM (inactive) | 3.77 µM (inactive) | 0.935 µM (active) | 3.99 µM (inactive) | 3.14 µM (inactive) | – | 3.21 µM (inactive) | 4.82 µM (inactive)
4 | FC(F)(F)c1ccc2nc(Sc3ccccn3)cnc2c1 | 16.7 µM (inactive) | 29.6 µM (inactive) | 46.6 µM (inactive) | 50.5 | 4.14 µM (inactive) | 54.7 µM (inactive) | 38.4 µM (inactive) | 48.4 µM (inactive) | 21.7 µM (inactive) | 37.4 µM (inactive) | – | 38.8 µM (inactive) | – | – | – | 28 µM (inactive) | 19.7 µM (inactive) | 51.4 µM (inactive) | > 100 µM (inactive)
5 | O=C1N/C(=N/N=C\C(O)C(O)C(O)CO)N/C1=C/c1ccc(Cl)cc1 (centres undefined) | 18.1 µM (inactive) and 17.8 µM (inactive) | 30.7 µM (inactive) and 23.9 µM (inactive) | 44.8 µM (inactive) and 70.5 µM (inactive) | 20.6 | 35.7 µM (inactive) | 40.1 µM (inactive) and 29 µM (inactive) | 58.5 µM (inactive) and 44.6 µM (inactive) | 33.9 µM (inactive) | 22.5 µM (inactive) and 20.4 µM (inactive) | 55.5 µM (inactive) and 44.5 µM (inactive) | 21.6 µM (inactive) and 17.2 µM (inactive) | 44.1 µM (inactive) and 27.7 µM (inactive) | 42.8 µM (inactive) and 37.5 µM (inactive) | 33.2 µM (inactive) and 34.4 µM (inactive) | – | 34.1 µM (inactive) and 21.9 µM (inactive) | 49.7 µM (inactive) and 39.8 µM (inactive) | 27.3 µM (inactive) and 27.2 µM (inactive) | 20.9 µM (inactive) and 17 µM (inactive)
6 | CC(=O)N1N(c2ccc([N+](=O)[O-])cc2)C(=O)C1(C)C | 19.7 µM (inactive) | 11.9 µM (inactive) | 35.6 µM (inactive) | 15.7 | – | 33.5 µM (inactive) | 20.1 µM (inactive) | 29.4 µM (inactive) | 12.1 µM (inactive) | 30.8 µM (inactive) | 19.3 µM (inactive) | 23.2 µM (inactive) | 15.7 µM (inactive) | – | – | 39.3 µM (inactive) | 37.9 µM (inactive) | 17 µM (inactive) | 19.6 µM (inactive)
7 | COc1ccc(O)c(/C=N\Nc2ccccc2)c1 | 7.85 µM (inactive) | 6.32 µM (inactive) | 25.5 µM (inactive) | 8.65 | 3.17 µM (inactive) | 30.1 µM (inactive) | 7.03 µM (inactive) | 4.79 µM (inactive) | 2.32 µM (inactive) | 18.6 µM (inactive) | – | 22.1 µM (inactive) | 45.2 µM (inactive) | 0.021 µM (active) | – | 0.402 µM (active) | 15.5 µM (inactive) | 3.19 µM (inactive) | –
8 | Cc1nc2c(Br)cc(Br)cc2c(=O)n1-c1ccccc1N | 39.7 µM (inactive) | 27.5 µM (inactive) | 56.6 µM (inactive) | 35.8 | 19.9 µM (inactive) | 25.9 µM (inactive) | 47.4 µM (inactive) | 31.8 µM (inactive) | – | 45.9 µM (inactive) | 63.5 µM (inactive) | 62.5 µM (inactive) | 26.8 µM (inactive) | – | 37 µM (inactive) | – | 36.9 µM (inactive) | 29.8 µM (inactive) | 28.4 µM (inactive)
9 | COC(=O)C1(C(=O)OC)CC2=C(S(=O)(=O)c3ccccc3)C[C@H](S(=O)(=O)c3ccccc3)[C@H]2C1 | > 100 µM (inactive) | > 100 µM (inactive) | > 100 µM (inactive) | 35.3 | – | > 100 µM (inactive) | 27.4 µM (inactive) | 39.6 µM (inactive) | 33 µM (inactive) | > 100 µM (inactive) | 29 µM (inactive) | > 100 µM (inactive) | 41.9 µM (inactive) | 11.7 µM (inactive) | – | 30.3 µM (inactive) | > 100 µM (inactive) | 23.7 µM (inactive) | 80.2 µM (inactive)
10 | Cc1ccc2c(=O)c(-c3nnc(NC4CCCCC4)s3)c[nH]c2n1 | > 100 µM (inactive) | > 100 µM (inactive) | > 100 µM (inactive) | > 100 | > 100 µM (inactive) | > 100 µM (inactive) | > 100 µM (inactive) | > 100 µM (inactive) | > 100 µM (inactive) | > 100 µM (inactive) | > 100 µM (inactive) | > 100 µM (inactive) | > 100 µM (inactive) | > 100 µM (inactive) | – | 50 µM (inactive) | > 100 µM (inactive) | > 100 µM (inactive) | > 100 µM (inactive)
11 | O=c1[nH]c2[nH]c(-c3ccc(Br)cc3)cc2c2ccccc12 | 66.8 µM (inactive) | 76.4 µM (inactive) | > 100 µM (inactive) | > 100 | 13.5 µM (inactive) | 15.1 µM (inactive) | 15 µM (inactive) | > 100 µM (inactive) | > 100 µM (inactive) | 50.1 µM (inactive) | > 100 µM (inactive) | 23.3 µM (inactive) | > 100 µM (inactive) | 70.5 µM (inactive) | 11.3 µM (inactive) | – | > 100 µM (inactive) | 27.1 µM (inactive) | > 100 µM (inactive)
12 | O=C(O)CSCC(=O)O | > 100 µM (inactive) | > 100 µM (inactive) | > 100 µM (inactive) | > 100 | > 100 µM (inactive) | > 100 µM (inactive) | > 100 µM (inactive) | > 100 µM (inactive) | > 100 µM (inactive) | > 100 µM (inactive) | > 100 µM (inactive) | > 100 µM (inactive) | > 100 µM (inactive) | – | > 100 µM (inactive) | – | > 100 µM (inactive) | > 100 µM (inactive) | > 100 µM (inactive)
13 | CCCNC(=S)N/C=C1\C(=O)Nc2ccccc2C1=O | > 100 µM (inactive) | > 100 µM (inactive) | > 100 µM (inactive) | > 100 | > 100 µM (inactive) | > 100 µM (inactive) | > 100 µM (inactive) | > 100 µM (inactive) | > 100 µM (inactive) | > 100 µM (inactive) | > 100 µM (inactive) | > 100 µM (inactive) | > 100 µM (inactive) | > 100 µM (inactive) | – | > 100 µM (inactive) | > 100 µM (inactive) | > 100 µM (inactive) | –
14 | O=C1CCC2(CCO1)OCCO2 | > 100 µM (inactive) | > 100 µM (inactive) | > 100 µM (inactive) | > 100 | > 100 µM (inactive) | > 100 µM (inactive) | > 100 µM (inactive) | > 100 µM (inactive) | > 100 µM (inactive) | > 100 µM (inactive) | > 100 µM (inactive) | > 100 µM (inactive) | > 100 µM (inactive) | – | > 100 µM (inactive) | > 100 µM (inactive) | – | > 100 µM (inactive) | > 100 µM (inactive)
15 | COc1ccc2c(c1)N=C1CSC(c3c(Cl)cccc3[N+](=O)[O-])N1C2 (centres undefined) | 36.1 µM (inactive) | 24.7 µM (inactive) | – | 30.8 | 31 µM (inactive) | 45.4 µM (inactive) | 33.3 µM (inactive) | 20 µM (inactive) | 31 µM (inactive) | 34.5 µM (inactive) | – | 46.9 µM (inactive) | 40.6 µM (inactive) | 30 µM (inactive) | – | 49 µM (inactive) | – | 35.4 µM (inactive) | 44.3 µM (inactive)
16 | O=c1[nH]nc(Cc2ccc([N+](=O)[O-])cc2)n1CCO | > 100 µM (inactive) | > 100 µM (inactive) | > 100 µM (inactive) | > 100 | > 100 µM (inactive) | > 100 µM (inactive) | > 100 µM (inactive) | > 100 µM (inactive) | > 100 µM (inactive) | > 100 µM (inactive) | > 100 µM (inactive) | > 100 µM (inactive) | > 100 µM (inactive) | > 100 µM (inactive) | – | > 100 µM (inactive) | > 100 µM (inactive) | > 100 µM (inactive) | > 100 µM (inactive)
